Tests used:
Type in all cases: cell-based
[1] = target: T1, OR7C1 (Homo sapiens, UniProt O76099); assay: Luciferase-based CRE gene reporter assay, dose-response on OR7C1; conditions: negative logarithm of the EC50 in Moles; semi-logarithmic dilutions from 1 mM to 316 nM on OR7C1
T1 construct: transfected with a plasmid containing the CRE-luciferase and a plasmid containing the olfactory receptor; expressed in transfected cells; host or cells: HEK293T-RTP1A1/RTP2 (HEK293T stably expressing the chaperones RTP1A1 and RTP2)
T1 sequence (O76099 1-320): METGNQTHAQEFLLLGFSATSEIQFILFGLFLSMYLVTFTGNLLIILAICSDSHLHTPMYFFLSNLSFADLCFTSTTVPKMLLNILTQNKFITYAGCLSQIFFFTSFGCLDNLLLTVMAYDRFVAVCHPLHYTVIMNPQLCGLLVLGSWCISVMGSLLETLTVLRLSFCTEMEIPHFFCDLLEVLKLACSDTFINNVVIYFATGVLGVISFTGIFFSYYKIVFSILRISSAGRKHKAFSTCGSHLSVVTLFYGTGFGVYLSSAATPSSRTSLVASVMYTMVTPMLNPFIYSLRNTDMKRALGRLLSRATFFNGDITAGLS
Description: HEK293T-RTP1A1/RTP2 cells were maintained in minimal essential medium (EMEM, Lonza) containing 10% fetal bovine serum (M10). These cells were generated by transfecting HEK293T (Thermofisher Scientific, cat ref: R70007) with an expression vector containing the sequences of the chaperone proteins RTP1A1 and RTP2 and a resistance gene to puromycin, using Lipofectamine 2000. The recombinant cell population, used in these experiments, was selected by adding 10 μg/ml of puromycin into the culture medium and subsequently subcloned (WO 2014/191047 A1).
Potential OR7C1 agonists were diluted at a concentration of 1 mole/liter (M) into an organic solvent such as Dimethyl Sulfoxide (DMSO) or Ethanol to generate stock solutions. […]
For concentration-response analysis, serial dilutions of the tested molecules were prepared from stock solutions in EMEM plated into 96-well plates.
For the dose-response analysis, a Luciferase-based gene reporter assay (Promega, Leiden, the Netherlands) was used. Briefly, cells were platted on poly-D-lysine-coated 96-well plates and transfected with a plasmid containing the CRE-luciferase and a plasmid containing the olfactory receptor. Sixteen hours after transfection, the culture medium was replaced by serum-free EMEM containing the tested compounds at a determined concentration. After four hours of incubation at 37° C., cells were lysed and processed for luminescence measurement. Luminescence emission was recorded. Results were expressed as luciferase activity ([…] (RLU)) or as percentage of the response induced by 10 μM of the adenylate cyclase activator Forskolin. An empty plasmid is used as negative control.
Dose-response analyses using the luciferase-based reporter assay were performed using semi-logarithmic serial dilutions of the compounds, from 1 mM to 316 nM, on OR7C1. 46 compounds were tested in concentration-response analyses. In each experiment, an empty vector (pEFIBRHO) was used as negative control. Values are given as the negative logarithm of the EC50 in Moles.

[2] = system: human skin explants; assay: Melanogenesis in human skin living explants (Masson's Fontana staining, image analysis); conditions: for melanogenesis: compared with chronic UVA; for increase of melanin content in the basal layer of the epidermis (image analysis, stained surface): D6, explants phototype II, p<0.01
Description: Human skin explants of an average diameter of 12 mm (±1 mm) were prepared on an abdoplasty coming from a person (reference: P2237AB47—phototype II) or person (reference P2196-AB61, phototype III). The explants were kept in survival in BEM culture medium (BIO-EC's Explants Medium) at 37° C. in a humid, 5%-CO2 atmosphere.
The Ambermax was diluted in 0.1% ethanol at the following concentrations: 0.3 μM, 1 μM, 3 μM, 10 μM, 15 μM, 30 μM and 100 μM. The diluted solutions were stored at 4° C. during the study.
The explants were treated for 10 days with Ambermax (see products application below) or with no treatment.
On day 0 (DO), day 3 (D3), day 5 (D5), day 7 (D7) and day 10 (D10), the tested products (compounds for use in the invention) were 1) applied topically using a small spatula based on 2 μl per explant (2 mg per cm^2) at the indicated concentrations, 2) applied intradermatically by injections into the dermis using a syringe with 20 μL of product for each explant or 3) applied systemically by dilutions of the compound of invention in the culture media at the indicated concentration. […] The culture medium was half renewed (1 ml/well) on day 3, day 5, day 7 and day 10.
On day 0 (D0), D2, D3, D6, and D8, the tested products (compounds for use in the invention) were applied topically using a small spatula on the basis of 2 μl per explant (2 mg per cm^2). […] The culture medium was half renewed (1 ml/well) on D2, D3, D6 and D8.
After fixation for 24 hours in buffered formalin solution, the samples were dehydrated and impregnated in paraffin using a Leica PEARL dehydration automat. The samples were then paraffin-embedded using a Leica EG 1160 embedding station. 5-μm-thick sections of paraffin-embedded formol fixed sections were realized using a Leica RM 2125 Minot-type microtome, and the sections were then mounted on Superfrost® Plus glass slides. Microscopical observations were realized using a Leica DMLB, a BX43 or BX63 Olympus microscope. Pictures were digitized with an Olympus DP72 or DP74 camera and the Cell^D or cellSens data storing software.
Melanin was visualized after silver impregnation according to Masson's Fontana staining method on formalin-fixed paraffin-embedded (FFPE) skin sections. The staining was assessed by microscopical observation and image analysis of specific batches. Concerned batches: T0, (TUV, P1→P10) on D5 or D6 and D10.
The images analyses were performed on all the images of each batch, according to the following method using Cell^D or cellSens software:
For each batch of explants, the percentage of the region of interest covered by the staining (stained surface percentage) is determined by image analysis according to the previously described process.
Stained surfaces comparisons: the stained surface percentage (Surf %) for each treatment is compared to the untreated condition=>P vs T. The same comparisons are made for the induced batches with or without treatment=>T vs TUV.
The effects ex vivo was shown by treating human biopsies for 10 days (human living explants: 12 mm+/−1, donor, skin type III) with a systemic application, intradermic injections or a topical application of compounds according to embodiments of the invention (Ambermax). Concentrations of 1, 5 and 10 μM of this compound were used for systemic application and intradermic injections on the human explants. For topical application, biopsies were treated with 10, 30, and 100 μM of Ambermax. As control, non-treated explants or/and explants exposed to chronic UVA-irradiations were used as described in the experimental procedures.

[3] = system: human skin explants; assay: as above; conditions: systemic treatment, 3 and 5 μM, after 5 days, compared with chronic UVA

## Ambermax [Compound 16]
[1]
  -LogEC50 (average n > 3): > 8
[2]; FFPE skin sections, without UVs exposure
  enhancement of melanogenesis (microscopical observation and semi-quantification of melanin staining): very effective to enhance melanogenesis without UVs exposure
[2]; intradermal injection for 10 days
  most effective concentration (melanogenesis): 1 µM
[2]; intradermal injection, 1 μM and 10 μM, after 5 days
  melanogenesis: increase of melanogenesis slightly weaker than that achieved with chronic UVA
[2]; second batch of explants, phototype II, topical
  melanin content present in the basal layer in skin explants: induced an increase of the melanin content present in the basal layer
[2]; systemic treatment, day 10
  most efficient concentration to stimulate melanin synthesis: 1 µM
[2]; topical 10 μM
  increase of melanin content in the basal layer of the epidermis (image analysis, stained surface): 152%
[2]; topical 15 μM
  increase of melanin content in the basal layer of the epidermis (image analysis, stained surface): 160%
[2]; topical treatment, 10 μM, 30 μM and 100 μM, 10 days
  melanogenesis: moderate melanogenesis induction, slightly lower than that obtained with of chronic UVA
[2]; topical treatment, 10 μM, 5 days
  melanogenesis: increase in melanogenesis comparable to that obtained with chronic UVA irradiation
[3]
  melanogenesis: rise of melanogenesis equivalent to the one obtained with a chronic UVA irradiation

From US20240058240A1, “COMPOUNDS AS SELF-TANNING SUBSTANCES AND TANNING COMPOSITIONS THEREOF” (CHEMCOM S.A., priority 2020, published 2024)
